Paper PMC10952572, “Improved PIEZO1 agonism through 4‐benzoic acid modification of Yoda1” (British Journal of Pharmacology, 2023)

How the values were obtained:
[1] = system: HeLa cells; experiment: Intracellular Ca2+ measurement in HeLa cells with siRNA knockdown of PIEZO1/PIEZO2; type: cell-based, human; details: 10 μM; for Ca2+ response after PIEZO1 depletion / Ca2+ response after PIEZO2 depletion: HeLa cells; for Ca2+ response after PIEZO1 depletion: siPIEZO1; for Ca2+ response after PIEZO2 depletion: siPIEZO2
Description: Hela (ATCC Cat #CRM‐CCL‐2, RRID:CVCL_0030) and HEK 293 (ATCC Cat #CRL‐1573, RRID:CVCL_0045) cells were purchased from ATCC and maintained in DMEM supplemented with 10% heat‐inactivated fetal calf serum, 100 U·ml^−1 penicillin and 100 μg·ml^−1 streptomycin (Sigma‐Aldrich).
Cells were transfected using Opti‐MEM™ I Reduced Serum Medium (Thermo Fisher Scientific) and Lipofectamine 2000 (Thermo Fisher Scientific). For transfection of cells in six‐well plates, […] short‐interfering RNA (siRNA) (control siRNA [siCtrl]: Dharmacon ON‐TARGETplus Non‐targeting Control Pool, D‐001810‐10‐05; siRNA targeted to PIEZO2 expression [siPIEZO2]: Dharmacon ON‐TARGETplus SmartPool PIEZO2, L‐013925‐02‐0005; and PIEZO1: Sigma‐Aldrich, GCAAGUUCGUGCGCGGAUU[DT][DT]) and 3 μl of Lipofectamine 2000 complexed in 200 μl of Opti‐MEM were added to 0.8 ml cell culture medium per well. The culture medium was changed 4 h post transfection, and cells were used for experiments 48 h later.
HEK 293‐TREx cells and their stably transfected derivatives or transiently transfected HEK 293 or HeLa cells were seeded at a density of 7.5 × 10^4 cells per well into poly‐D‐lysine‐coated 96‐well plates. The plates were either commercially pre‐coated with poly‐D‐lysine (Greiner Bio‐One #655946) or (Greiner Bio‐One #655090) were coated in‐house with 35 μl of a 10 μg·ml^−1 poly‐D‐lysine (Bio‐Techne, Cultrex # 3439‐100‐01) in sterile deionised water per well for at least 24 h and rinsed three times with 100 μl per well sterile D‐PBS before addition of cells. HUVECs were seeded into tissue culture‐treated 96‐well plates (Greiner Bio‐One #655090) at a density of either 2.5 × 10^4 cells 24 h before experimentation or 1.25 × 10^4 cells 48 h before experimentation. Cells were incubated with 2 μM Fura‐2‐AM (Molecular Probes™) in the presence of 0.01% (wt./vol.) pluronic F127 (Sigma‐Aldrich #P2443) in standard bath solution (SBS) for 1 h at 37°C. Cells were washed with SBS for 30 min at room temperature. Alternatively, if inhibitors were being tested, these were added at this time, immediately following a wash in SBS. (−)‐Englerin A (Akbulut et al., [2015]) was used in SBS containing 0.01% pluronic acid as a dispersing agent to minimise aggregation of compound. Unless otherwise stated, the final concentration of DMSO was 0.2% (vol./vol). Working 2000× stock solutions of test compounds were freshly made in DMSO and diluted 1000‐fold in SBS during the 30 min SBS wash/inhibitor pre‐incubation period to obtain 2× solutions for injection. When testing the highest concentration of Yoda1, KC159 and KC289 (30 μM), the final DMSO concentration was 0.6% (vol./vol.). Measurements were made at room temperature on a 96‐well fluorescence plate reader (FlexStation 3, Molecular Devices, Sunnyvale, CA, USA) controlled by SoftMax Pro software v7.0.3. Recipient wells containing 80 μl SBS/0.2% (vol./vol.) DMSO vehicle or inhibitor compound received 80 μl 2× compound at an injection rate of 1 μl·s^−1, and the pipette introduced liquids from a height setting of 70 μl. No trituration was performed. For recordings using Fura‐2, the change in intracellular Ca was indicated as the ratio of Fura‐2 emission (510 nm) intensities at 340 and 380 nm excitation. Photomultipliers were set to medium sensitivity. SBS contained 130 mM NaCl, 5 mM KCl, 8 mM D‐glucose, 10 mM HEPES, 1.2 mM MgCl2 and 1.5 mM CaCl2, and the pH was adjusted to 7.4 with NaOH. The solution was filtered through a 0.2 μm bottle‐top filter prior to use and handled aseptically thereafter.

[2] = target: T1, human TRPC5 (Homo sapiens, UniProt Q9UL62); experiment: Intracellular Ca2+ measurement in hTRPC5-TREx cells; type: cell-based; details: 10 μM
T1 construct: expressed in transfected cells
T1 sequence (Q9UL62 1-973): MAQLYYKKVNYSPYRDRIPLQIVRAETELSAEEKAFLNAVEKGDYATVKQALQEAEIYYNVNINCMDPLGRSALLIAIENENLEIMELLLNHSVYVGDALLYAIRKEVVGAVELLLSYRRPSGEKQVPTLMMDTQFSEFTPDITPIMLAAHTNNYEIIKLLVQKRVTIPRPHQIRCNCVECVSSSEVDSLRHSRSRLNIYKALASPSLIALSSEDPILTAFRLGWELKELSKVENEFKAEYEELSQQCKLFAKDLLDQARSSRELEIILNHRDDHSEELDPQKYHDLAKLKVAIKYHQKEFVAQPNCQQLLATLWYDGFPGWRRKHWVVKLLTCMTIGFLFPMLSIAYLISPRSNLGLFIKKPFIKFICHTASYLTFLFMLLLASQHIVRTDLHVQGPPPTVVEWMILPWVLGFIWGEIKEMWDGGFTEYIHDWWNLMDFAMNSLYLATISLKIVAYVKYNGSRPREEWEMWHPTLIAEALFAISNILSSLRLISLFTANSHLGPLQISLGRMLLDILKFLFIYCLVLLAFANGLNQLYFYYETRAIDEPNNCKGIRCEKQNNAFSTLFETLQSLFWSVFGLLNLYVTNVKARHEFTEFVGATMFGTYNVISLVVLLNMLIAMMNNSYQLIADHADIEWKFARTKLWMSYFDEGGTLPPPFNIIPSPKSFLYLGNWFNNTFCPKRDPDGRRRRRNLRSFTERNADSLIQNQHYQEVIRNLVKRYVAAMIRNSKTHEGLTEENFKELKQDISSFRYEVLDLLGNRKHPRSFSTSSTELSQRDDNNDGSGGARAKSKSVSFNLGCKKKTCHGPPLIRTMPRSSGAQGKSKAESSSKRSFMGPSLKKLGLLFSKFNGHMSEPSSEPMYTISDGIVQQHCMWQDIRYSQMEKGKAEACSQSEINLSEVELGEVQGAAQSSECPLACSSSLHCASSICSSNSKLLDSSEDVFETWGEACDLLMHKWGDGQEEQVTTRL
Description: HEK T‐REx™ 293 cells stably expressing tetracycline‐regulated human TRPC5 have been described previously (Zeng et al., [2004]). For the TRPC5‐expressing cells, selection was achieved by including 5 μg·ml^−1 blasticidin and 400 μg·ml^−1 zeocin in the cell medium. To induce expression, cells were incubated with 1 μg·ml^−1 tetracycline for 24 h prior to experiments. These cells are referred to as hTRPC5‐TREx.
HEK 293‐TREx cells and their stably transfected derivatives or transiently transfected HEK 293 or HeLa cells were seeded at a density of 7.5 × 10^4 cells per well into poly‐D‐lysine‐coated 96‐well plates. The plates were either commercially pre‐coated with poly‐D‐lysine (Greiner Bio‐One #655946) or (Greiner Bio‐One #655090) were coated in‐house with 35 μl of a 10 μg·ml^−1 poly‐D‐lysine (Bio‐Techne, Cultrex # 3439‐100‐01) in sterile deionised water per well for at least 24 h and rinsed three times with 100 μl per well sterile D‐PBS before addition of cells. HUVECs were seeded into tissue culture‐treated 96‐well plates (Greiner Bio‐One #655090) at a density of either 2.5 × 10^4 cells 24 h before experimentation or 1.25 × 10^4 cells 48 h before experimentation. Cells were incubated with 2 μM Fura‐2‐AM (Molecular Probes™) in the presence of 0.01% (wt./vol.) pluronic F127 (Sigma‐Aldrich #P2443) in standard bath solution (SBS) for 1 h at 37°C. Cells were washed with SBS for 30 min at room temperature. Alternatively, if inhibitors were being tested, these were added at this time, immediately following a wash in SBS. (−)‐Englerin A (Akbulut et al., [2015]) was used in SBS containing 0.01% pluronic acid as a dispersing agent to minimise aggregation of compound. Unless otherwise stated, the final concentration of DMSO was 0.2% (vol./vol). […] Measurements were made at room temperature on a 96‐well fluorescence plate reader (FlexStation 3, Molecular Devices, Sunnyvale, CA, USA) controlled by SoftMax Pro software v7.0.3. […]

## O=C([O-])c1ccc(-c2nnc(SCc3c(Cl)cccc3Cl)s2)cc1.[K+] [KC289]
[1]
  Ca2+ elevations in HeLa cells: evoked Ca^2+ elevations
  Ca2+ response after PIEZO1 depletion: partly suppressed
  Ca2+ response after PIEZO2 depletion: partly suppressed
[2]
  Ca2+ response in cells expressing TRPC5 in place of PIEZO1: fail to evoke responses

## Clc1cccc(Cl)c1CSc1nnc(-c2cnccn2)s1 [Yoda1, 2‐[5‐[[(2,6‐dichlorophenyl)methyl]thio]‐1,3,4‐thiadiazol‐2‐yl]pyrazine]
[1]
  Ca2+ elevations in HeLa cells: evoked Ca^2+ elevations
  Ca2+ response after PIEZO1 depletion: partly suppressed
  Ca2+ response after PIEZO2 depletion: partly suppressed
[2]
  Ca2+ response in cells expressing TRPC5 in place of PIEZO1: fail to evoke responses

## O=C(O)c1ccc(-c2nnc(SCc3c(Cl)cccc3Cl)s2)cc1 [KC159]
[1]
  Ca2+ elevations in HeLa cells: evoked Ca^2+ elevations
  Ca2+ response after PIEZO1 depletion: partly suppressed
  Ca2+ response after PIEZO2 depletion: partly suppressed
[2]
  Ca2+ response in cells expressing TRPC5 in place of PIEZO1: fail to evoke responses
